Blank lines part the entries; values can stand above or below the compound they belong to.
Key:
lymphocytes [1] = experiment: enzyme activity with fluorogenic substrate, normal lymphocytes (Table 3A); type: cell-based, human
lymphocytes [2] = experiment: aberrant enzyme activities in febrile children, lymphocytes (Table 7); type: cell-based, human
monocytes [3] = experiment: aberrant enzyme activities in febrile children, monocytes (Table 7); type: cell-based, human
granulocytes [4] = experiment: enzyme activity with fluorogenic substrate, normal granulocytes (Table 3A); type: cell-based, human
granulocytes [5] = experiment: aberrant enzyme activities in febrile children, granulocytes (Table 7); type: cell-based, human
monocytes [6] = experiment: enzyme activity with fluorogenic substrate, normal monocytes (Table 3A); type: cell-based, human
[7] = system: substituted rhodamine 110 substrates; experiment: modulator effect on substituted rhodamine 110 substrates; type: biochemical; conditions: 1 mM
Excerpt: Modulators are components used to […] the sensitivity of the enzyme for the leaving group. The modulators speed up or slow down the activity of an enzyme by changing the active site. […] Preferred modulators for particular enzymes are included in Table 1.

[8] = system: metabolically active whole cell; experiment: substrate panel in normals and HIV + patients, TB infection (Table 4); type: cell-based, human; parameters: unit not given here
Procedure: A panel of assay compounds are assembled consisting of Ala-aminopeptidase and Lys-aminopeptidase, Dipeptidyl peptidase IV (Ala-Ala)2 rhodamine 110 and Cathepsin D to indicate possible TB infection in AIDS related cases.
A panel Of enzymatic substrates is performed consisting of Ala-aminopeptidase and Lys-aminopeptidase, Dipeptidyl peptidase IV (Ala-Ala)2 rhodamine 110 and Cathepsin D to indicate possible TB infection in AIDS related cases.

lymphocytes [9] = experiment: peptidase activity in leukemia and non-leukemia patients, lymphocytes (Table 6C); type: cell-based, human; parameters: unit not given here
granulocytes [10] = experiment: peptidase activity in leukemia and non-leukemia patients, granulocytes (Table 6C); type: cell-based, human; parameters: unit not given here
erythrocytes = experiment: enzyme activity with fluorogenic substrate, normal erythrocytes (Table 3B); type: cell-based, human

- NORMAL LEUKOCYTE ENZYME ACTIVITY LYMPHS Mean (lymphocytes [1]): 30.99
- aberrant enzyme activity, LYMPHS (lymphocytes [2]; P92 Adenitis): - (>0.25 Decrease over normal range)
- aberrant enzyme activity, LYMPHS (lymphocytes [2]; P97 Pyelonephritis): .smallcircle.
- aberrant enzyme activity, LYMPHS (lymphocytes [2]; P103 Viral Syndrome): .smallcircle.
- aberrant enzyme activity, MONOS (monocytes [3]; P92 Adenitis): - (>0.25 Decrease over normal range)
- aberrant enzyme activity, MONOS (monocytes [3]; P97 Pyelonephritis): .smallcircle.
- aberrant enzyme activity, MONOS (monocytes [3]; P103 Viral Syndrome): .smallcircle.
- NORMAL LEUKOCYTE ENZYME ACTIVITY GRANS Mean (granulocytes [4]): 80.16
- aberrant enzyme activity, GRANS (granulocytes [5]; P92 Adenitis): - (>0.25 Decrease over normal range)
- aberrant enzyme activity, GRANS (granulocytes [5]; P97 Pyelonephritis): .smallcircle.
- aberrant enzyme activity, GRANS (granulocytes [5]; P103 Viral Syndrome): .smallcircle.
- NORMAL LEUKOCYTE ENZYME ACTIVITY MONOS Mean (monocytes [6]): 71.45
Compound: C[C@@H](O)[C@H](NC(=O)OCc1ccccc1)C(=O)N1CCC[C@H]1C(=O)Nc1ccc2c(c1)Oc1cc(NC(=O)[C@@H]3CCCN3C(=O)[C@@H](NC(=O)OCc3ccccc3)[C@@H](C)O)ccc1C21OC(=O)c2ccccc21 [Z-TP 8.7-M]

- sensitivity of the leaving group for the enzyme ([7]; Ala-Gly and Leu-Gly substrates): does not change the sensitivity
Compound: O[C@H](CS)[C@@H](O)CS [dithioerythritol (DTE), dithioerythritol]
- sensitivity of the substituted rhodamine 110 substrates ([7]; Pro, Gly, Gln-Ser, Val-Lys-Val-Lys, Ala-Ala, Ala-Ala-Ala-Ala substrates): decreases the sensitivity

Compound: (Gly)2 Rho 110
- MEAN DELTA FL ([8]; HIV + PATIENTS): 62.4
- MEAN DELTA FL ([8]; NORMALS): 101.1
- NORMAL LEUKOCYTE ENZYME ACTIVITY LYMPHS Mean (lymphocytes [1]): 18.18
- enzyme activity, Lymphs (lymphocytes [9]; J4 11/21/91 acute leuk.): 14.02
- enzyme activity, Lymphs (lymphocytes [9]; J4 12/2/91 A L): 27.32
- enzyme activity, Lymphs (lymphocytes [9]; J4 12/3/91 acute leuk.): 31.51
- enzyme activity, Lymphs (lymphocytes [9]; J5 11/27/91 A M L): 28.36
- enzyme activity, Lymphs (lymphocytes [9]; J19 11/27/91 C L L): 11.39
- enzyme activity, Lymphs (lymphocytes [9]; J22 12/2/91 A M L): 24.50
- enzyme activity, Lymphs (lymphocytes [9]; J22 12/9/91 A M L): 27.14
- enzyme activity, Lymphs (lymphocytes [9]; N191 normal): 43.57
- enzyme activity, Lymphs (lymphocytes [9]; N192 normal): 37.47
- enzyme activity, Lymphs (lymphocytes [9]; N193 normal): 39.30
- enzyme activity, Lymphs (lymphocytes [9]; N194 normal): 39.76
- enzyme activity, Lymphs (lymphocytes [9]; N195 normal): 48.18
- enzyme activity, Lymphs (lymphocytes [9]; N197 normal): 42.96
- enzyme activity, Lymphs (lymphocytes [9]; N199 normal): 30.68
- enzyme activity, Lymphs (lymphocytes [9]; N200 normal): 42.28
- enzyme activity, Lymphs (lymphocytes [9]; N201 normal): 45.32
- enzyme activity, Lymphs (lymphocytes [9]; N202 normal): 44.55
- enzyme activity, Lymphs (lymphocytes [9]; N206 normal): 55.56
- enzyme activity, Lymphs (lymphocytes [9]; P68 tachycardia): 59.29
- enzyme activity, Lymphs (lymphocytes [9]; P69 pancreatic CA): 67.38
- enzyme activity, Lymphs (lymphocytes [9]; P70 cirrhosis/hemobilia): 54.84
- enzyme activity, Lymphs (lymphocytes [9]; P71 ac. pyelonephritis): 41.93
- aberrant enzyme activity, LYMPHS (lymphocytes [2]; P88 Enteritis): .smallcircle.
- aberrant enzyme activity, LYMPHS (lymphocytes [2]; P89 Viral Stomatitis): - (>0.25 Decrease over normal range)
- aberrant enzyme activity, LYMPHS (lymphocytes [2]; P92 Adenitis): .smallcircle.
- aberrant enzyme activity, LYMPHS (lymphocytes [2]; P97 Pyelonephritis): .smallcircle.
- aberrant enzyme activity, LYMPHS (lymphocytes [2]; P102 UTI): .smallcircle.
- aberrant enzyme activity, LYMPHS (lymphocytes [2]; P103 Viral Syndrome): .smallcircle.
- aberrant enzyme activity, MONOS (monocytes [3]; P88 Enteritis): .smallcircle.
- aberrant enzyme activity, MONOS (monocytes [3]; P89 Viral Stomatitis): .smallcircle.
- aberrant enzyme activity, MONOS (monocytes [3]; P92 Adenitis): .smallcircle.
- aberrant enzyme activity, MONOS (monocytes [3]; P97 Pyelonephritis): + (>0.25 Increase over normal range)
- aberrant enzyme activity, MONOS (monocytes [3]; P103 Viral Syndrome): .smallcircle.
- enzyme activity, Grans (granulocytes [10]; J4 11/21/91 acute leuk.): 27.79
- enzyme activity, Grans (granulocytes [10]; J4 12/2/91 A L): 47.74
- enzyme activity, Grans (granulocytes [10]; J4 12/3/91 acute leuk.): 48.53
- enzyme activity, Grans (granulocytes [10]; J5 11/27/91 A M L): 56.33
- enzyme activity, Grans (granulocytes [10]; J19 11/27/91 C L L): 48.80
- enzyme activity, Grans (granulocytes [10]; J22 12/2/91 A M L): 34.02
- enzyme activity, Grans (granulocytes [10]; J22 12/9/91 A M L): 38.47
- enzyme activity, Grans (granulocytes [10]; N191 normal): 73.20
- enzyme activity, Grans (granulocytes [10]; N192 normal): 48.67
- enzyme activity, Grans (granulocytes [10]; N193 normal): 63.33
- enzyme activity, Grans (granulocytes [10]; N194 normal): 60.30
- enzyme activity, Grans (granulocytes [10]; N195 normal): 79.13
- enzyme activity, Grans (granulocytes [10]; N197 normal): 76.88
- enzyme activity, Grans (granulocytes [10]; N199 normal): 45.00
- enzyme activity, Grans (granulocytes [10]; N200 normal): 59.39
- enzyme activity, Grans (granulocytes [10]; N201 normal): 75.48
- enzyme activity, Grans (granulocytes [10]; N202 normal): 66.22
- enzyme activity, Grans (granulocytes [10]; N206 normal): 91.93
- enzyme activity, Grans (granulocytes [10]; P68 tachycardia): 100.00
- enzyme activity, Grans (granulocytes [10]; P69 pancreatic CA): 88.04
- enzyme activity, Grans (granulocytes [10]; P70 cirrhosis/hemobilia): 88.42
- enzyme activity, Grans (granulocytes [10]; P71 ac. pyelonephritis): 59.35
- NORMAL LEUKOCYTE ENZYME ACTIVITY GRANS Mean (granulocytes [4]): 29.48
- aberrant enzyme activity, GRANS (granulocytes [5]; P88 Enteritis): .smallcircle.
- aberrant enzyme activity, GRANS (granulocytes [5]; P89 Viral Stomatitis): .smallcircle.
- aberrant enzyme activity, GRANS (granulocytes [5]; P92 Adenitis): .smallcircle.
- aberrant enzyme activity, GRANS (granulocytes [5]; P97 Pyelonephritis): .smallcircle.
- aberrant enzyme activity, GRANS (granulocytes [5]; P102 UTI): .smallcircle.
- aberrant enzyme activity, GRANS (granulocytes [5]; P103 Viral Syndrome): .smallcircle.
- NORMAL LEUKOCYTE ENZYME ACTIVITY MONOS Mean (monocytes [6]): 61.47

Compound: (Z-Thr--Pro)2 Rho 110 [Z-TP 8.7]
- NORMAL LEUKOCYTE ENZYME ACTIVITY LYMPHS Mean (lymphocytes [1]): 35.01
- aberrant enzyme activity, LYMPHS (lymphocytes [2]; P92 Adenitis): - (>0.25 Decrease over normal range)
- aberrant enzyme activity, LYMPHS (lymphocytes [2]; P97 Pyelonephritis): .smallcircle.
- aberrant enzyme activity, LYMPHS (lymphocytes [2]; P103 Viral Syndrome): .smallcircle.
- aberrant enzyme activity, MONOS (monocytes [3]; P92 Adenitis): - (>0.25 Decrease over normal range)
- aberrant enzyme activity, MONOS (monocytes [3]; P97 Pyelonephritis): .smallcircle.
- aberrant enzyme activity, MONOS (monocytes [3]; P103 Viral Syndrome): .smallcircle.
- NORMAL LEUKOCYTE ENZYME ACTIVITY GRANS Mean (granulocytes [4]): 82.35
- aberrant enzyme activity, GRANS (granulocytes [5]; P92 Adenitis): .smallcircle.
- aberrant enzyme activity, GRANS (granulocytes [5]; P97 Pyelonephritis): .smallcircle.
- aberrant enzyme activity, GRANS (granulocytes [5]; P103 Viral Syndrome): .smallcircle.
- NORMAL LEUKOCYTE ENZYME ACTIVITY MONOS Mean (monocytes [6]): 76.00
- NORMAL E[…] ACTIVITY MEAN (erythrocytes): 0.161
